US10618918B2, “Substituted boronic acids as antimicrobials” (priority 2015, dated 2020)
Where two headings read alike, the source gives them in different places.

Columns and labels:
KP1010 SHV-12 = assay: Aztreonam potentiation (MPC@4), strain KP1010 SHV-12; settings: minimum BLI concentration inhibiting growth with aztreonam 4 μg/mL; tested up to 40 μg/mL
KP1004 KPC-2 [1] = assay: Aztreonam potentiation (MPC@4), strain KP1004 KPC-2; settings: minimum BLI concentration inhibiting growth with aztreonam 4 μg/mL; tested up to 40 μg/mL
ECL1002 = assay: Aztreonam potentiation (MPC@4), strain ECL1002; settings: minimum BLI concentration inhibiting growth with aztreonam 4 μg/mL; tested up to 40 μg/mL
KP1009 CTX-M-15 = assay: Aztreonam potentiation (MPC@4), strain KP1009 CTX-M-15; settings: minimum BLI concentration inhibiting growth with aztreonam 4 μg/mL; tested up to 40 μg/mL
[2] = biological target: purified class A, C and D enzymes (β-lactamases) (Klebsiella pneumoniae, UniProt Q6XEC0); assay: biochemical; assay type: biochemical; settings: purified OXA-48; nitrocefin (NCF) as reporter substrate
[3] = biological target: T1, purified class A, C and D enzymes (β-lactamases) (Pseudomonas aeruginosa, UniProt P24735); assay: biochemical; assay type: biochemical
T1 construct: rows headed: Ki (Pa-AmpC, NCF), uM; other: purified Pa-AmpC; nitrocefin (NCF) as reporter substrate

[4] = biological target: purified class A, C and D enzymes (β-lactamases) (Klebsiella pneumoniae, UniProt Q9F663); assay: biochemical; assay type: biochemical; settings: purified KPC-2; nitrocefin (NCF) as reporter substrate
[5] = biological target: T2, purified class A, C and D enzymes (β-lactamases) (Acinetobacter baumannii, UniProt Q9L4P2); assay: biochemical; assay type: biochemical; settings: purified OXA-23; nitrocefin (NCF) as reporter substrate
T2 construct: rows headed: Ki (OXA-23, NCF), uM; other: purified OXA-23; nitrocefin (NCF) as reporter substrate

[6] = biological target: purified class A, C and D enzymes (β-lactamases) (Escherichia coli, UniProt Q9L5C7); assay: biochemical; assay type: biochemical; settings: purified CTX-M-14; nitrocefin (NCF) as reporter substrate
[7] = biological target: purified class A, C and D enzymes (β-lactamases) (Enterobacter cloacae, UniProt P05364); assay: biochemical; assay type: biochemical
EC1010 CMY-6 = assay: Aztreonam potentiation (MPC@4), strain EC1010 CMY-6; settings: minimum BLI concentration inhibiting growth with aztreonam 4 μg/mL; tested up to 40 μg/mL
AB1054 OXA-23 = assay: Meropenem potentiation (MPC@8), strain AB1054 OXA-23; assay type: cell-based, Acinetobacter baumannii; settings: minimum BLI concentration inhibiting growth with meropenem 8 μg/mL; tested up to 20 μg/mL
ec308 SHV-5 = assay: Aztreonam potentiation (MPC@4), strain ec308 SHV-5; settings: minimum BLI concentration inhibiting growth with aztreonam 4 μg/mL; tested up to 40 μg/mL
KP1086 OXA-48 = assay: Biapenem potentiation (MPC@1), strain KP1086 OXA-48; assay type: cell-based; settings: minimum BLI concentration inhibiting growth with biapenem 1 μg/mL; tested up to 40 μg/mL
Procedure: (§1) Biapenem was present in the test medium at 1 μg/mL. […] Table 3 summarizes the BLI potency of biapenem potentiation (MPC@1) for two strains overexpressing class A (KPC) and class D (OXA-48) carbapenemases. Biapenem MIC for each strain is also shown.

KP1004 KPC-2 [8] = assay: Biapenem potentiation (MPC@1), strain KP1004 KPC-2; assay type: cell-based; settings: minimum BLI concentration inhibiting growth with biapenem 1 μg/mL; tested up to 40 μg/mL
Procedure: as §1

AB1053 OXA-72 = assay: Meropenem potentiation (MPC@8), strain AB1053 OXA-72; assay type: cell-based, Acinetobacter baumannii; settings: minimum BLI concentration inhibiting growth with meropenem 8 μg/mL; tested up to 20 μg/mL
KP1005 CTX-M-14 = assay: Tigemonam potentiation (MPC@4), strain KP1005 CTX-M-14; settings: minimum BLI concentration inhibiting growth with tigemonam 4 μg/mL; tested up to 40 μg/mL
ec302 TEM-10 = assay: Aztreonam potentiation (MPC@4), strain ec302 TEM-10; settings: minimum BLI concentration inhibiting growth with aztreonam 4 μg/mL; tested up to 40 μg/mL

T1 sequence (P24735 whole entry): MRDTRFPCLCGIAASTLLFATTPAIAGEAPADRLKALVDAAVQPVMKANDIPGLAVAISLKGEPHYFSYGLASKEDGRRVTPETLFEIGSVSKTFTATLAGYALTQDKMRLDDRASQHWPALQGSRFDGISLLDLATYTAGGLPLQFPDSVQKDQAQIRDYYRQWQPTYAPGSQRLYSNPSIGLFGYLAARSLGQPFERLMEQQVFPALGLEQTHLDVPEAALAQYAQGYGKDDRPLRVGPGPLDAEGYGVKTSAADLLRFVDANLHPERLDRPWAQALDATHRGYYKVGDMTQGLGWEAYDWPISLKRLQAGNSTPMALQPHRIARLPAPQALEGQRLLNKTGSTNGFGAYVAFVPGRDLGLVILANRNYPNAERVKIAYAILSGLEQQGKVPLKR
Chain of purified class A, C and D enzymes (β-lactamases) (Enterobacter cloacae, UniProt P05364) (P05364 21-381): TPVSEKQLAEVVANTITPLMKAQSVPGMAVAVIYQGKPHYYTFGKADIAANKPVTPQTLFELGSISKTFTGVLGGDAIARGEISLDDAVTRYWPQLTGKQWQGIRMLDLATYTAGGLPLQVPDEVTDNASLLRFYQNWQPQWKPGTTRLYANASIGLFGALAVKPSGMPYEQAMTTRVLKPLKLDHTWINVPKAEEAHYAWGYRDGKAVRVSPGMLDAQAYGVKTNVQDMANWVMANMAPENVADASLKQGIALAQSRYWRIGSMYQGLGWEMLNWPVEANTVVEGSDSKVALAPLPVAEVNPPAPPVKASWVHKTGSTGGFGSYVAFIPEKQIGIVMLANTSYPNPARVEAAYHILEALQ
T2 sequence (Q9L4P2 whole entry): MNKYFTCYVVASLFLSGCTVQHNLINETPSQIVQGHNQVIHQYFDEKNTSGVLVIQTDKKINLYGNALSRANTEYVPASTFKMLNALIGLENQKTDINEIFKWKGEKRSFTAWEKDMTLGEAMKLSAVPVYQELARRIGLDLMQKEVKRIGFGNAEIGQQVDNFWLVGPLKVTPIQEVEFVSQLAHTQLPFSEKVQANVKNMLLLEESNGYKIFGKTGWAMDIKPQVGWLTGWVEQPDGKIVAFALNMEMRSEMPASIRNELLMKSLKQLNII
Chain of purified class A, C and D enzymes (β-lactamases) (Escherichia coli, UniProt Q9L5C7) (Q9L5C7 entry or part of it): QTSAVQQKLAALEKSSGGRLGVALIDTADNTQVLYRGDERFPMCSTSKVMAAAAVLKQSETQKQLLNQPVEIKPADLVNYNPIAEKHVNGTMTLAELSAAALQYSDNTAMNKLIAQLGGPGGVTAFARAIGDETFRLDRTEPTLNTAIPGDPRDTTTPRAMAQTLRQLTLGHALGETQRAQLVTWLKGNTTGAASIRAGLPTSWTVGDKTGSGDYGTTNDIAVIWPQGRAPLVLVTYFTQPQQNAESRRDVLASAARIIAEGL

Structure (SMILES) | AZT MPC4 SHV-12 KP1010 (KP1010 SHV-12) | AZT MPC4 KPC-2 KP1004 (KP1004 KPC-2 [1]) | AZT MPC4 ECL1002 (ECL1002) | AZT MPC4 CTX-M-15 KP1009 (KP1009 CTX-M-15) | Ki (OXA-48, NCF), uM [2] | Ki ([3]; purified Pa-AmpC, nitrocefin (NCF) as reporter substrate, read-out: Ki (Pa-AmpC, NCF)) | Ki (KPC-2, NCF), uM [4] | Ki [5] | Ki (CTX-M-14, NCF), uM [6] | Ki (P99, NCF), uM ([7]; purified P99, nitrocefin (NCF) as reporter substrate) | AZT MPC4 CMY-6 EC1010 (EC1010 CMY-6) | MPM MPC8 AB1054 OXA-23 (AB1054 OXA-23) | AZT MPC4 SHV-5 ec308 (ec308 SHV-5) | BPM MPC1 OXA-48 KP1086 (KP1086 OXA-48) | BPM MPC1 KP1004 KPC-2 (KP1004 KPC-2 [8]) | MPM MPC8 AB1053 OXA-72 (AB1053 OXA-72) | TIG MPC4 CTX-M-14 KP1005 (KP1005 CTX-M-14) | AZT MPC4 TEM-10 ec302 (ec302 TEM-10) | Ki [3] | Ki (P99, NCF), uM [7]
COc1c(Cl)cc2c(c1C(=O)O)OB(O)CC2 [Compound 41, 6-Chloro-2-hydroxy-7-methoxy-3,4-dihydro-1,2-benzoxaborinine-8-carboxylic acid] | X (X = MPC@4 ≤ 5 μg/mL) | X (X = MPC@4 ≤ 5 μg/mL) | X (X = MPC@4 ≤ 5 μg/mL) | X (X = MPC@4 ≤ 5 μg/mL) | X (X = Ki ≤ 0.1 μM) | < 100 nM | X (X = Ki ≤ 0.1 μM) | < 100 nM | X (X = Ki ≤ 0.1 μM) | X (X = Ki ≤ 0.1 μM) | X (X = MPC@4 ≤ 5 μg/mL) | X (X = MPC@1 ≤ 5 μg/mL) | X (X = MPC@4 ≤ 5 μg/mL) | X (X = MPC@1 ≤ 5 μg/mL) | X (X = MPC@1 ≤ 5 μg/mL) | X (X = MPC@1 ≤ 5 μg/mL) | Y (Y = 5 μg/mL < MPC@4 ≤ 20 μg/mL) | X (X = MPC@4 ≤ 5 μg/mL) | – | –
O=C([O-])c1c(O)ccc2c1O[B-](O)(O)CC2.[Na+].[Na+] [Compound 42, Disodium; 4,4,8-trihydroxy-5-oxa-4-boranuidabicyclo[4.4.0]deca-1(6),7,9-triene-7-carboxylate] | X (X = MPC@4 ≤ 5 μg/mL) | Y (Y = 5 μg/mL < MPC@4 ≤ 20 μg/mL) | Z (Z = MPC@4 > 20 μg/mL) | Z (Z = MPC@4 > 20 μg/mL) | X (X = Ki ≤ 0.1 μM) | – | X (X = Ki ≤ 0.1 μM) | 100 to 1000 nM | X (X = Ki ≤ 0.1 μM) | – | Z (Z = MPC@4 > 20 μg/mL) | Z (Z = MPC@1 > 20 μg/mL) | Y (Y = 5 μg/mL < MPC@4 ≤ 20 μg/mL) | X (X = MPC@1 ≤ 5 μg/mL) | X (X = MPC@1 ≤ 5 μg/mL) | Z (Z = MPC@1 > 20 μg/mL) | Z (Z = MPC@4 > 20 μg/mL) | Y (Y = 5 μg/mL < MPC@4 ≤ 20 μg/mL) | 100 to 1000 nM | Y (key: X = Ki ≤ 0.1 μM; Y = 0.1 μM < Ki ≤ 1 μM; Z = Ki > 1 μM)
O=C([O-])c1c(OCCF)ccc2c1O[B-](O)(O)CC2.[Na+].[Na+] [Compound 43, Disodium; 8-(2-fluoroethoxy)-4,4-dihydroxy-5-oxa-4-boranuidabicyclo[4.4.0]deca-1(6),7,9-triene-7-carboxylate] | X (X = MPC@4 ≤ 5 μg/mL) | X (X = MPC@4 ≤ 5 μg/mL) | X (X = MPC@4 ≤ 5 μg/mL) | X (X = MPC@4 ≤ 5 μg/mL) | X (X = Ki ≤ 0.1 μM) | – | X (X = Ki ≤ 0.1 μM) | < 100 nM | X (X = Ki ≤ 0.1 μM) | – | X (X = MPC@4 ≤ 5 μg/mL) | X (X = MPC@1 ≤ 5 μg/mL) | X (X = MPC@4 ≤ 5 μg/mL) | X (X = MPC@1 ≤ 5 μg/mL) | X (X = MPC@1 ≤ 5 μg/mL) | X (X = MPC@1 ≤ 5 μg/mL) | X (X = MPC@4 ≤ 5 μg/mL) | X (X = MPC@4 ≤ 5 μg/mL) | < 100 nM | X (key: X = Ki ≤ 0.1 μM; Y = 0.1 μM < Ki ≤ 1 μM; Z = Ki > 1 μM)
